Source: ChEMBL document CHEMBL1201862, “PubChem BioAssay data set” (2004)
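Interpolation was linear, between the two tested concentrations surrounding the appropriate level; five concentrations were tested over 48 hours in 96-well plates. At the GI50, growth is halved.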 Activity calls are given as the source filed them. Rule as the data show it: active = GI50 up to about 1.1 µM and inactive = higher.

Assays:
Assay in all cases: growth of human tumour cells (NCI), 48 h
SNB-78 = tested on: SNB-78
DLD-1 = tested on: DLD-1
DMS-273 = tested on: DMS-273
OVCAR-3 = tested on: OVCAR-3
A549 = tested on: A549
U-251 = tested on: U-251
LOX IMVI = tested on: LOX IMVI
HOP-18 = tested on: HOP-18
CAKI-1 = tested on: CAKI-1
SNB-19 = tested on: SNB-19
A498 = tested on: A498
786-0 = tested on: 786-0
ACHN = tested on: ACHN
SNB-75 = tested on: SNB-75
RPMI-8226 = tested on: RPMI-8226
UACC-257 = tested on: UACC-257
OVCAR-5 = tested on: OVCAR-5
HCC 2998 = tested on: HCC 2998
XF498 = tested on: XF498
UACC-62 = tested on: UACC-62
NCI-H460 = tested on: NCI-H460
HOP-92 = tested on: HOP-92
SK-OV-3 = tested on: SK-OV-3
HOP-62 = tested on: HOP-62
HT-29 = tested on: HT-29
LXFL 529 = tested on: LXFL 529
SK-MEL-28 = tested on: SK-MEL-28
RXF 393 = tested on: RXF 393
NCI-H226 = tested on: NCI-H226
OVCAR-8 = tested on: OVCAR-8
SF-539 = tested on: SF-539
TK-10 = tested on: TK-10
KM-20L2 = tested on: KM-20L2
SF-268 = tested on: SF-268
NCI-H23 = tested on: NCI-H23
Malme-3M = tested on: Malme-3M
OVCAR-4 = tested on: OVCAR-4
SW-620 = tested on: SW-620
RXF 631 = tested on: RXF 631
SF-295 = tested on: SF-295
COLO 205 = tested on: COLO 205
UO-31 = tested on: UO-31
DMS-114 = tested on: DMS-114
M19-MEL = tested on: M19-MEL
SN12C = tested on: SN12C
HCT-15 = tested on: HCT-15
HCT-116 = tested on: HCT-116
IGROV-1 = tested on: IGROV-1
KM12 = tested on: KM12
SK-MEL-2 = tested on: SK-MEL-2
EKVX = tested on: EKVX
M14 = tested on: M14
HL-60 = tested on: HL-60
MOLT-4 = tested on: MOLT-4
NCI-H522 = tested on: NCI-H522
K562 = tested on: K562
SK-MEL-5 = tested on: SK-MEL-5
SR = tested on: SR
CCRF-CEM = tested on: CCRF-CEM

In the case of `O=C(CC1(O)C(=O)Nc2c(Cl)ccc(Cl)c21)c1ccc(Cl)cc1` (centres undefined), the GI50 (SNB-78) is reported as 49.1 µM (inactive), the GI50 (DLD-1) is reported as 38 µM (inactive) and the GI50 (DMS-273) is reported as 27 µM (inactive). For the same compound, the GI50 (OVCAR-3) was 23.3 µM (inactive), the GI50 (A549) was 45.5 µM (inactive) and the GI50 (U-251) was 29.2 µM (inactive). The GI50 (LOX IMVI) was 18.5 µM (inactive), the GI50 (HOP-18) was 44.2 µM (inactive) and the GI50 (CAKI-1) was 51.1 µM (inactive). The GI50 (SNB-19) was 67.8 µM (inactive), the GI50 (A498) was 38.4 µM (inactive) and the GI50 (786-0) was 16.7 µM (inactive). The GI50 (ACHN) was 20.8 µM (inactive), the GI50 (SNB-75) was 26.6 µM (inactive) and the GI50 (RPMI-8226) was 21 µM (inactive). The GI50 (UACC-257) was 29.9 µM (inactive), the GI50 (OVCAR-5) was 35.2 µM (inactive) and the GI50 (HCC 2998) was 24.5 µM (inactive). For the same compound, the GI50 (XF498) was 19.1 µM (inactive), the GI50 (UACC-62) was 23.1 µM (inactive) and the GI50 (NCI-H460) was 23.4 µM (inactive). The GI50 (HOP-92) was 37.8 µM (inactive), the GI50 (SK-OV-3) was 34.8 µM (inactive) and the GI50 (HOP-62) was 32 µM (inactive). For the same compound, the GI50 (HT-29) was 28.2 µM (inactive), the GI50 (LXFL 529) was 25.2 µM (inactive) and the GI50 (SK-MEL-28) was 53.7 µM (inactive). For the same compound, the GI50 (RXF 393) was 21.9 µM (inactive), the GI50 (NCI-H226) was 38.5 µM (inactive) and the GI50 (OVCAR-8) was 18.9 µM (inactive). The GI50 (SF-539) was 24.8 µM (inactive), the GI50 (TK-10) was > 100 µM (inactive) and the GI50 (KM-20L2) was 38.1 µM (inactive). For the same compound, the GI50 (SF-268) was 37 µM (inactive), the GI50 (NCI-H23) was 21.6 µM (inactive) and the GI50 (Malme-3M) was 28.8 µM (inactive). For the same compound, the GI50 (OVCAR-4) was 25.7 µM (inactive), the GI50 (SW-620) was 55.5 µM (inactive) and the GI50 (RXF 631) was 23.8 µM (inactive). The GI50 (SF-295) was 34.5 µM (inactive), the GI50 (COLO 205) was 18.6 µM (inactive) and the GI50 (UO-31) was 34.4 µM (inactive). The GI50 (DMS-114) was 24.1 µM (inactive), the GI50 (M19-MEL) was 18.4 µM (inactive) and the GI50 (SN12C) was 18.2 µM (inactive). The GI50 (HCT-15) was 31.4 µM, the GI50 (HCT-116) was 29.4 µM (inactive) and the GI50 (IGROV-1) was 23.9 µM (inactive). The GI50 (KM12) was 28.4 µM (inactive), the GI50 (SK-MEL-2) was 25.2 µM (inactive) and the GI50 (EKVX) was 95.3 µM (inactive). The GI50 (M14) was 26.4 µM (inactive).

`Cc1ccc(S(=O)(=O)OC2CS[S+]([O-])CC2OS(=O)(=O)c2ccc(C)cc2)cc1` (centres undefined) was tested, and the GI50 (SNB-78) was 17 µM (inactive), the GI50 (DLD-1) was 9.27 µM (inactive) and the GI50 (DMS-273) was 18.9 µM (inactive). The GI50 (OVCAR-3) was 17.4 µM (inactive), the GI50 (A549) was 19 µM (inactive) and the GI50 (U-251) was 14.8 µM (inactive). For the same compound, the GI50 (HL-60) was 6.01 µM (inactive), the GI50 (LOX IMVI) was 12.1 µM (inactive) and the GI50 (HOP-18) was 22.6 µM (inactive). For the same compound, the GI50 (CAKI-1) was 12.9 µM (inactive), the GI50 (MOLT-4) was 2.23 µM (inactive) and the GI50 (SNB-19) was 17.6 µM (inactive). For the same compound, the GI50 (A498) was 16.1 µM (inactive), the GI50 (786-0) was 16.8 µM (inactive) and the GI50 (ACHN) was 17 µM (inactive). For the same compound, the GI50 (NCI-H522) was 10.3 µM (inactive), the GI50 (SNB-75) was 20.6 µM (inactive) and the GI50 (K562) was 4.02 µM (inactive). For the same compound, the GI50 (RPMI-8226) was 5.74 µM (inactive), the GI50 (UACC-257) was 14.6 µM (inactive) and the GI50 (OVCAR-5) was 18.2 µM (inactive). The GI50 (HCC 2998) was 17.1 µM (inactive), the GI50 (XF498) was 13.6 µM (inactive) and the GI50 (UACC-62) was 15.3 µM (inactive). For the same compound, the GI50 (NCI-H460) was 22.3 µM (inactive), the GI50 (HOP-92) was 13 µM (inactive) and the GI50 (SK-OV-3) was 21.7 µM (inactive). The GI50 (HOP-62) was 20.8 µM (inactive), the GI50 (HT-29) was 29.6 µM (inactive) and the GI50 (LXFL 529) was 14.5 µM (inactive). For the same compound, the GI50 (SK-MEL-28) was 15.6 µM (inactive), the GI50 (RXF 393) was 8.22 µM (inactive) and the GI50 (NCI-H226) was 19.4 µM (inactive). The GI50 (OVCAR-8) was 10.6 µM (inactive), the GI50 (SF-539) was 15.2 µM (inactive) and the GI50 (TK-10) was 15.1 µM (inactive). For the same compound, the GI50 (KM-20L2) was 17.7 µM (inactive), the GI50 (SF-268) was 17 µM (inactive) and the GI50 (NCI-H23) was 14.7 µM (inactive). The GI50 (Malme-3M) was 14.6 µM (inactive), the GI50 (SK-MEL-5) was 16 µM (inactive) and the GI50 (OVCAR-4) was 15.6 µM (inactive). The GI50 (SW-620) was 6.55 µM (inactive), the GI50 (RXF 631) was 16.6 µM (inactive) and the GI50 (SF-295) was 15.7 µM (inactive). For the same compound, the GI50 (COLO 205) was 11.8 µM (inactive), the GI50 (UO-31) was 18.9 µM (inactive) and the GI50 (DMS-114) was 17.9 µM (inactive). The GI50 (M19-MEL) was 16.6 µM (inactive), the GI50 (SN12C) was 15.2 µM (inactive) and the GI50 (HCT-15) was 19 µM. For the same compound, the GI50 (SR) was 1.83 µM (inactive), the GI50 (HCT-116) was 13.9 µM (inactive) and the GI50 (IGROV-1) was 18 µM (inactive). The GI50 (KM12) was 17.3 µM (inactive), the GI50 (EKVX) was 21.1 µM (inactive) and the GI50 (M14) was 14.3 µM (inactive).

`Nc1nc2c(c(=O)[n-]1)[n+](CCO)cn2C1OC(CO)C(O)C1O` (centres undefined) was tested, and the GI50 (SNB-78) was > 100 µM (inactive), the GI50 (DLD-1) was > 100 µM (inactive) and the GI50 (DMS-273) was > 100 µM (inactive). The GI50 (OVCAR-3) was > 100 µM (inactive), the GI50 (A549) was > 100 µM (inactive) and the GI50 (U-251) was > 100 µM (inactive). The GI50 (HL-60) was > 100 µM (inactive), the GI50 (LOX IMVI) was > 100 µM (inactive) and the GI50 (HOP-18) was > 100 µM (inactive). For the same compound, the GI50 (CAKI-1) was > 100 µM (inactive), the GI50 (A498) was > 100 µM (inactive) and the GI50 (786-0) was > 100 µM (inactive). For the same compound, the GI50 (ACHN) was > 100 µM (inactive), the GI50 (CCRF-CEM) was > 100 µM (inactive) and the GI50 (NCI-H522) was > 100 µM (inactive). The GI50 (SNB-75) was > 100 µM (inactive), the GI50 (K562) was > 100 µM (inactive) and the GI50 (RPMI-8226) was > 100 µM (inactive). For the same compound, the GI50 (UACC-257) was > 100 µM (inactive), the GI50 (OVCAR-5) was > 100 µM (inactive) and the GI50 (XF498) was > 100 µM (inactive). The GI50 (UACC-62) was > 100 µM (inactive), the GI50 (NCI-H460) was > 100 µM (inactive) and the GI50 (HOP-92) was > 100 µM (inactive). The GI50 (SK-OV-3) was > 100 µM (inactive), the GI50 (HOP-62) was > 100 µM (inactive) and the GI50 (HT-29) was > 100 µM (inactive). For the same compound, the GI50 (LXFL 529) was > 100 µM (inactive), the GI50 (SK-MEL-28) was > 100 µM (inactive) and the GI50 (RXF 393) was > 100 µM (inactive). For the same compound, the GI50 (NCI-H226) was > 100 µM (inactive), the GI50 (OVCAR-8) was > 100 µM (inactive) and the GI50 (SF-539) was > 100 µM (inactive). For the same compound, the GI50 (TK-10) was > 100 µM (inactive), the GI50 (KM-20L2) was > 100 µM (inactive) and the GI50 (SF-268) was > 100 µM (inactive). For the same compound, the GI50 (Malme-3M) was > 100 µM (inactive), the GI50 (SK-MEL-5) was > 100 µM (inactive) and the GI50 (OVCAR-4) was > 100 µM (inactive). The GI50 (SW-620) was > 100 µM (inactive), the GI50 (RXF 631) was > 100 µM (inactive) and the GI50 (SF-295) was > 100 µM (inactive). The GI50 (COLO 205) was > 100 µM (inactive), the GI50 (UO-31) was > 100 µM (inactive) and the GI50 (DMS-114) was > 100 µM (inactive). The GI50 (M19-MEL) was > 100 µM (inactive), the GI50 (SN12C) was > 100 µM (inactive) and the GI50 (HCT-15) was > 100 µM. For the same compound, the GI50 (SR) was > 100 µM (inactive), the GI50 (HCT-116) was > 100 µM (inactive) and the GI50 (IGROV-1) was > 100 µM (inactive). For the same compound, the GI50 (KM12) was > 100 µM (inactive), the GI50 (SK-MEL-2) was > 100 µM (inactive) and the GI50 (EKVX) was > 100 µM (inactive). For the same compound, the GI50 (M14) was > 100 µM (inactive).
